According to US11697648B2, “Fused pyrimidine pyridinone compounds as JAK inhibitors” (THERAVANCE BIOPHARMA R&D IP, LLC, priority 2019, dated 2023):

How the values were obtained:
JAK1 = JAK1 (Homo sapiens (Human), UniProt P23458); assay: Biochemical JAK1 kinase assay (LanthaScreen)
In short: (§1)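 GST-JAK + GFP-STAT1 peptide, HEPES pH 7.5/MgCl2/EGTA/Brij-35 buffer; cpd preincubation 1 h RT; ATP start, 1 h RT; stop with 10 mM EDTA + 2 nM Tb-anti-pSTAT1; TR-FRET 520/495. 4-parameter IC50 → pKi (Cheng-Prusoff).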

JAK2 = JAK2 (Homo sapiens (Human), UniProt O60674); assay: Biochemical JAK2 kinase assay (LanthaScreen)
JAK2, sequence (O60674 whole entry): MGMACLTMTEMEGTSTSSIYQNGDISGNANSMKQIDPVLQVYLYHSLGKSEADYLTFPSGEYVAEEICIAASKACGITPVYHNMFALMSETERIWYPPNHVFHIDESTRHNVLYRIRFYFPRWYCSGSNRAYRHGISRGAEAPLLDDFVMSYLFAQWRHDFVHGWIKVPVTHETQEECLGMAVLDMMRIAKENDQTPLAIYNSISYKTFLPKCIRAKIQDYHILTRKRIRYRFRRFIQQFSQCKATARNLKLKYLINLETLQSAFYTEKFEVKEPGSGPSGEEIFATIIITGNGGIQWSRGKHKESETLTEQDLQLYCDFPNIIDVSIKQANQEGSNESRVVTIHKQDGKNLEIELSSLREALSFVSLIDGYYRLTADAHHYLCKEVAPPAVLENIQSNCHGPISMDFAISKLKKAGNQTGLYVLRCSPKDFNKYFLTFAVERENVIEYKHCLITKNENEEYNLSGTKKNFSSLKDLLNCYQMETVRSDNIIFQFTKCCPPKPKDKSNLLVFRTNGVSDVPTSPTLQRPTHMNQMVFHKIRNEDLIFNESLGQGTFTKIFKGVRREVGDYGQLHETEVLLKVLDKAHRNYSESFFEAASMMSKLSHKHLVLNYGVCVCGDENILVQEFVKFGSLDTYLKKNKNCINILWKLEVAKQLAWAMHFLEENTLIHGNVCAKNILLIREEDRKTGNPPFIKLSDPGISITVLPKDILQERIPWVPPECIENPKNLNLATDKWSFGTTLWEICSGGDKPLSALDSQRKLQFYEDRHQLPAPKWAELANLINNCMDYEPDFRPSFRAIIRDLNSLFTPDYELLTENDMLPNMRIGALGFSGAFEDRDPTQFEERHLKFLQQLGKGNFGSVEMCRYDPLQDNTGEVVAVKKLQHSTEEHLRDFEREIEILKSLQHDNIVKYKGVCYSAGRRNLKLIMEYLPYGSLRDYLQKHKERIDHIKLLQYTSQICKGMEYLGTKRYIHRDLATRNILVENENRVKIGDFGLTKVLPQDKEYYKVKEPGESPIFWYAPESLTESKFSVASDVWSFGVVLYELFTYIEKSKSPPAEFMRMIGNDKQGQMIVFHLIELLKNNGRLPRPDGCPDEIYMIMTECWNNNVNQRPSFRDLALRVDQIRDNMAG
In short: as §1

JAK3 = JAK3 (Homo sapiens (Human), UniProt P52333); assay: Biochemical JAK3 kinase assay (LanthaScreen); settings: for JAK3 (pKi)-JAK1 (pKi): selectivity JAK3 over JAK1, difference of pKi
JAK3, sequence (P52333 whole entry): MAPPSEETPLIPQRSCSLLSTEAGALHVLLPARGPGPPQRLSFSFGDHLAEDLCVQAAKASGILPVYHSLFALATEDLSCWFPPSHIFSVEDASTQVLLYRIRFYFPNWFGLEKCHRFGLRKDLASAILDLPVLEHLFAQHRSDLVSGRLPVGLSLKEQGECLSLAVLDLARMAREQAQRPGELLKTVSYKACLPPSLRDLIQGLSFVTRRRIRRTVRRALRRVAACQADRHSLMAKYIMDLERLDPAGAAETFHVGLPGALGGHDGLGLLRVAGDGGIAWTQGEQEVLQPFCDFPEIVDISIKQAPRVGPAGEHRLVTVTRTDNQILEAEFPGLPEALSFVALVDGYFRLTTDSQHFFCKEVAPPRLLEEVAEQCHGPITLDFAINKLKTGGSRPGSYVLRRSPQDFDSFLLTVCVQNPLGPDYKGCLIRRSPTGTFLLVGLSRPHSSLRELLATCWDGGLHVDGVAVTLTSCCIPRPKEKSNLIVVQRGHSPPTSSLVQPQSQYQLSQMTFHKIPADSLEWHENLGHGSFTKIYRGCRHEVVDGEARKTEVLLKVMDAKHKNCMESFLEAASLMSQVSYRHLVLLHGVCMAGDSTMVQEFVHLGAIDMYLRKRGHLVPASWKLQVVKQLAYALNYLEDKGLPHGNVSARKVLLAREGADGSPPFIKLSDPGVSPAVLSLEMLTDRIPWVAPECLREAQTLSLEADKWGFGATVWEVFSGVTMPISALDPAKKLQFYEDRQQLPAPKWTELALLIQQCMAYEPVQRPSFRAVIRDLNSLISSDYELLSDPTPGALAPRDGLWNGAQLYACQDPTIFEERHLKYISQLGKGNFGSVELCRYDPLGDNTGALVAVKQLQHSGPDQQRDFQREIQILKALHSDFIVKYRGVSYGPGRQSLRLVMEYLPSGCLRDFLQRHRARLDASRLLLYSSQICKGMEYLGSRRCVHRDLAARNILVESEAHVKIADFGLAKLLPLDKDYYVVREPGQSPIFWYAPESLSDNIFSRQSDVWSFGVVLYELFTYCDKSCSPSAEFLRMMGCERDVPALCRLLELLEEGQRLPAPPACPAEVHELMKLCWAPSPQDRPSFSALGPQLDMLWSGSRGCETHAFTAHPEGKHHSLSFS
In short: as §1

Tyk2 = Tyk2 (Homo sapiens (Human), UniProt P29597); assay: Biochemical Tyk2 kinase assay (LanthaScreen)
Tyk2, sequence (P29597 whole entry): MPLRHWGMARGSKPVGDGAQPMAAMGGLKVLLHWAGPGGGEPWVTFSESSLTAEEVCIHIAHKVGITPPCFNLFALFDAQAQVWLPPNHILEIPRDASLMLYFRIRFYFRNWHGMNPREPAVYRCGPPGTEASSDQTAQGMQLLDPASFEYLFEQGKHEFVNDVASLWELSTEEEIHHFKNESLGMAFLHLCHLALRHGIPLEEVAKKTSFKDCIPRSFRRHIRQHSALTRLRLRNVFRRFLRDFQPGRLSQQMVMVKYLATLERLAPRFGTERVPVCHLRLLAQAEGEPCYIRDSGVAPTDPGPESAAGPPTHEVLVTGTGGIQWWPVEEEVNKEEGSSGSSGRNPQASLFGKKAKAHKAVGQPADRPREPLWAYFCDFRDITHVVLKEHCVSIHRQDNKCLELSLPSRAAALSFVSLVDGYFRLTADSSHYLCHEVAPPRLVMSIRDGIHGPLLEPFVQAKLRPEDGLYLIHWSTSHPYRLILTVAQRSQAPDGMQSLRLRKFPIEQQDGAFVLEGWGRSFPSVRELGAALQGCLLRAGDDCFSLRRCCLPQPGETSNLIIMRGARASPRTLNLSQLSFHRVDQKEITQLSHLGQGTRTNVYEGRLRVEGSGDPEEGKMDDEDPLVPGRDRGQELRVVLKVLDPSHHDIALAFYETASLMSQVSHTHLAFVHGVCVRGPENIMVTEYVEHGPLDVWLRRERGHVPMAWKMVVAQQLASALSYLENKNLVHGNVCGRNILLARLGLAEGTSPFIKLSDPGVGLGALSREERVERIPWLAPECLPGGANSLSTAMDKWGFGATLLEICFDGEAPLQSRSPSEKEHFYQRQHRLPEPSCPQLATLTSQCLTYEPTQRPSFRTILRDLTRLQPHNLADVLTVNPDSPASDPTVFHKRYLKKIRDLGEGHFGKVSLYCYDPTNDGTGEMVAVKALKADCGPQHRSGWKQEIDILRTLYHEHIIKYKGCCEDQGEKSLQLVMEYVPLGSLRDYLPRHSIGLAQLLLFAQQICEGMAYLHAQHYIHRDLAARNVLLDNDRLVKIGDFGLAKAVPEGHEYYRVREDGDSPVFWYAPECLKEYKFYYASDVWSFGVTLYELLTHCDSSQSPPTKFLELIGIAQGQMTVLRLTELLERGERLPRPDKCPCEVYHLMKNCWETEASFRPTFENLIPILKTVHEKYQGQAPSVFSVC
In short: as §1

[1] = tested on: IL-2 stimulated STAT5 phosphorylation in Tall-1 human T cell line (JAK3); assay: Cellular JAK3 potency assay: inhibition of IL-2 stimulated pSTAT5 in Tall-1 T cells; format: cell-based; settings: IL-2 stimulated pSTAT5, Tall-1 T cells
In short: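 Tall-1 cells, 45,000 per well, preincubated 1 hour with compound at 37 °C, then stimulated 30 minutes with IL-2 at 300 ng/ml final. pSTAT5 (Tyr694/699) in lysates quantified by AlphaLISA SureFire Ultra. pIC50 derived from inhibition curves, given as mean with SD.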

JAK1, sequence (P23458 whole entry): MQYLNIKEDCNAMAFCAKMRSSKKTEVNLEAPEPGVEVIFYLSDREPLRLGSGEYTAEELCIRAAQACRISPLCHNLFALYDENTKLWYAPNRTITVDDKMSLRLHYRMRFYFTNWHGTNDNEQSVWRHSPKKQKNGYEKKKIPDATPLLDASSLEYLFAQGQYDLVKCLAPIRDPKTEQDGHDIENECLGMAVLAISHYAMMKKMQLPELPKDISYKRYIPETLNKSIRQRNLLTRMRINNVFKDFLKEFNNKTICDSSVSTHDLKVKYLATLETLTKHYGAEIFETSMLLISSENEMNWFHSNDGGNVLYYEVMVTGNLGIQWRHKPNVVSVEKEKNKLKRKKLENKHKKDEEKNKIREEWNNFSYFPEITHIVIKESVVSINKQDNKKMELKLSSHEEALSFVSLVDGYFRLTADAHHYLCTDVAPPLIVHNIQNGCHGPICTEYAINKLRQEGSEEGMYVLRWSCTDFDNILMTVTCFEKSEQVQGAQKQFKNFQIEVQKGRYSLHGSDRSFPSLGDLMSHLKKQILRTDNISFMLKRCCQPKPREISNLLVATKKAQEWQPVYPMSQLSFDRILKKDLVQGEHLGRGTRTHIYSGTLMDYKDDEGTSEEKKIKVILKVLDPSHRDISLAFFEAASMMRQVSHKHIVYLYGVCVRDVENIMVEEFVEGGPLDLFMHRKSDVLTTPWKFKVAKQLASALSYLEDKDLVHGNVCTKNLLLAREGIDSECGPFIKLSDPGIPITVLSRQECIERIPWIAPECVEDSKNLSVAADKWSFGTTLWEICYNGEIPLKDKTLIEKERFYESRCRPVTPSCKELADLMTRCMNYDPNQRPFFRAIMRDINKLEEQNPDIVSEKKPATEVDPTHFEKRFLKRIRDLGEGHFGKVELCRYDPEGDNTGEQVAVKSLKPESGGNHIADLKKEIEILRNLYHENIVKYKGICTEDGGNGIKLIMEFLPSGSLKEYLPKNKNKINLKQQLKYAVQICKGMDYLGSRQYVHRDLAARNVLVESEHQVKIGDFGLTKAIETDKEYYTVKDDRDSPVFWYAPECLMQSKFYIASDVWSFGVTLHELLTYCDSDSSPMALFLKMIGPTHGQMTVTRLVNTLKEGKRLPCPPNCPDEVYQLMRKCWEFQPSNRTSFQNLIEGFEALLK

Row | Structure (SMILES) | JAK 1 (pKi) (JAK1) | JAK 2 (pKi) (JAK2) | JAK 3 (pKi) (JAK3) | JAK3 (pKi)-JAK1 (pKi) (JAK3) | Tyk 2 (pKi) (Tyk2) | Tall-1 (pIC50) [1]
1 | C=CC(=O)N1CC(CCn2c(=O)ccc3cnc(Nc4ccc(N5CCN(C(C)=O)CC5)c(F)c4)nc32)C1 [Example 181] | E (E represents a pKi value of 7 or below (Ki of 100 nM or above)) | E (E represents a pKi value of 7 or below (Ki of 100 nM or above)) | B (B represents pKi value between 9 and 10 (Ki between 1 nM and 0.1 nM)) | A (A represents a value of 3 or above) | E (E represents a pKi value of 7 or below (Ki of 100 nM or above)) | B (B represents a pC50 value between 6.7 (included) and 7.5 (IC50 between 200 nM and 32 nM))
2 | C=CC(=O)N1CC(CCn2c(=O)ccc3cnc(Nc4ccc(N5CCN(C(C)=O)CC5)c(Cl)c4)nc32)C1 [Example 182] | E (E represents a pKi value of 7 or below (Ki of 100 nM or above)) | E (E represents a pKi value of 7 or below (Ki of 100 nM or above)) | A (A represents a pKi value≥10 (Ki≤0.1 nM)) | A (A represents a value of 3 or above) | E (E represents a pKi value of 7 or below (Ki of 100 nM or above)) | B (B represents a pC50 value between 6.7 (included) and 7.5 (IC50 between 200 nM and 32 nM))
3 | C=CC(=O)N1CC(CCn2c(=O)ccc3cnc(Nc4ccc(N5CCN(C(C)=O)CC5)nc4)nc32)C1 [Example 183] | E (E represents a pKi value of 7 or below (Ki of 100 nM or above)) | E (E represents a pKi value of 7 or below (Ki of 100 nM or above)) | A (A represents a pKi value≥10 (Ki≤0.1 nM)) | A (A represents a value of 3 or above) | E (E represents a pKi value of 7 or below (Ki of 100 nM or above)) | C (C represents a pIC50 value between 6 and 6.7 (IC50 between 1 μM and 200 nM))
4 | C=CC(=O)N1CC(C(C)(C)Cn2c(=O)ccc3cnc(Nc4ccc(N5CCN(C(C)=O)CC5)cc4)nc32)C1 [Example 184] | E (E represents a pKi value of 7 or below (Ki of 100 nM or above)) | E (E represents a pKi value of 7 or below (Ki of 100 nM or above)) | A (A represents a pKi value≥10 (Ki≤0.1 nM)) | A (A represents a value of 3 or above) | E (E represents a pKi value of 7 or below (Ki of 100 nM or above)) | B (B represents a pC50 value between 6.7 (included) and 7.5 (IC50 between 200 nM and 32 nM))
5 | C=CC(=O)N1CCN(CCn2c(=O)ccc3cnc(Nc4cnn(-c5ccccc5)c4)nc32)[C@@H](CC)C1 [Example 195] | E (E represents a pKi value of 7 or below (Ki of 100 nM or above)) | E (E represents a pKi value of 7 or below (Ki of 100 nM or above)) | B (B represents pKi value between 9 and 10 (Ki between 1 nM and 0.1 nM)) | A (A represents a value of 3 or above) | E (E represents a pKi value of 7 or below (Ki of 100 nM or above)) | B (B represents a pC50 value between 6.7 (included) and 7.5 (IC50 between 200 nM and 32 nM))
6 | C=CC(=O)N1CCN(C(C)(C)Cn2c(=O)ccc3cnc(Nc4ccc(N5CCN(C(C)=O)CC5)cc4)nc32)CC1 [Example 200] | E (E represents a pKi value of 7 or below (Ki of 100 nM or above)) | E (E represents a pKi value of 7 or below (Ki of 100 nM or above)) | C (C represents a pKi value between 8 and 9 (Ki between 10 nM and 1 nM)) | B (B represents a value of 2.5 to 3) | E (E represents a pKi value of 7 or below (Ki of 100 nM or above)) | C (C represents a pIC50 value between 6 and 6.7 (IC50 between 1 μM and 200 nM))
7 | C=CC(=O)N1CCN(CCn2c(=O)ccc3cnc(Nc4ccc(N5CCN(CC)CC5)cc4)nc32)CC1 [Example 204] | E (E represents a pKi value of 7 or below (Ki of 100 nM or above)) | E (E represents a pKi value of 7 or below (Ki of 100 nM or above)) | A (A represents a pKi value≥10 (Ki≤0.1 nM)) | A (A represents a value of 3 or above) | E (E represents a pKi value of 7 or below (Ki of 100 nM or above)) | A (A represents a pIC50 value≥7.5 (IC50≤32 nM))
8 | C=CC(=O)N1CCN(CCn2c(=O)ccc3cnc(Nc4ccc(N5CCN(S(=O)(=O)N(C)C)CC5)cc4)nc32)CC1 [Example 211] | E (E represents a pKi value of 7 or below (Ki of 100 nM or above)) | E (E represents a pKi value of 7 or below (Ki of 100 nM or above)) | A (A represents a pKi value≥10 (Ki≤0.1 nM)) | A (A represents a value of 3 or above) | E (E represents a pKi value of 7 or below (Ki of 100 nM or above)) | B (B represents a pC50 value between 6.7 (included) and 7.5 (IC50 between 200 nM and 32 nM))
9 | C=CC(=O)N1CCN(CCn2c(=O)ccc3cnc(Nc4ccc(N5CCN(C(=O)CC(C)C)CC5)cc4)nc32)CC1 [Example 212] | E (E represents a pKi value of 7 or below (Ki of 100 nM or above)) | E (E represents a pKi value of 7 or below (Ki of 100 nM or above)) | A (A represents a pKi value≥10 (Ki≤0.1 nM)) | A (A represents a value of 3 or above) | E (E represents a pKi value of 7 or below (Ki of 100 nM or above)) | B (B represents a pC50 value between 6.7 (included) and 7.5 (IC50 between 200 nM and 32 nM))
10 | C=CC(=O)N1CCN(CCn2c(=O)ccc3cnc(Nc4ccc(N5CCN(C(=O)C(C)C)CC5)cc4)nc32)CC1 [Example 213] | E (E represents a pKi value of 7 or below (Ki of 100 nM or above)) | E (E represents a pKi value of 7 or below (Ki of 100 nM or above)) | A (A represents a pKi value≥10 (Ki≤0.1 nM)) | A (A represents a value of 3 or above) | E (E represents a pKi value of 7 or below (Ki of 100 nM or above)) | B (B represents a pC50 value between 6.7 (included) and 7.5 (IC50 between 200 nM and 32 nM))
11 | C=CC(=O)N1CCN(CCn2c(=O)ccc3cnc(Nc4ccc(N5CCN(C(=S)N(C)C)CC5)cc4)nc32)CC1 [Example 214] | E (E represents a pKi value of 7 or below (Ki of 100 nM or above)) | E (E represents a pKi value of 7 or below (Ki of 100 nM or above)) | B (B represents pKi value between 9 and 10 (Ki between 1 nM and 0.1 nM)) | A (A represents a value of 3 or above) | E (E represents a pKi value of 7 or below (Ki of 100 nM or above)) | B (B represents a pC50 value between 6.7 (included) and 7.5 (IC50 between 200 nM and 32 nM))
12 | C=CC(=O)N1CC(CCn2c(=O)ccc3cnc(Nc4cccc(C(C)N5CCN(C(=O)N(C)C)CC5)c4)nc32)C1 (stereo not drawn) [Example 215] | E (E represents a pKi value of 7 or below (Ki of 100 nM or above)) | E (E represents a pKi value of 7 or below (Ki of 100 nM or above)) | B (B represents pKi value between 9 and 10 (Ki between 1 nM and 0.1 nM)) | A (A represents a value of 3 or above) | E (E represents a pKi value of 7 or below (Ki of 100 nM or above)) | B (B represents a pC50 value between 6.7 (included) and 7.5 (IC50 between 200 nM and 32 nM))
13 | C=CC(=O)N1CC(CCn2c(=O)ccc3cnc(Nc4cccc(C(C)N5CCN(C(C)=O)CC5)c4)nc32)C1 (stereo not drawn) [Example 216] | E (E represents a pKi value of 7 or below (Ki of 100 nM or above)) | E (E represents a pKi value of 7 or below (Ki of 100 nM or above)) | B (B represents pKi value between 9 and 10 (Ki between 1 nM and 0.1 nM)) | A (A represents a value of 3 or above) | E (E represents a pKi value of 7 or below (Ki of 100 nM or above)) | C (C represents a pIC50 value between 6 and 6.7 (IC50 between 1 μM and 200 nM))
